Test: in vivo
Conditions: rat, po

Compound	AUC(0-t) at 6 h [µM·h]
Cc1ccc(-n2cnc3c(sc4ncnc(NC5CC5)c43)c2=O)cc1	0.89
COc1ccc(-n2cnc3c(sc4ncnc(NC5CC5)c43)c2=O)cc1F	8.6

Source: ChEMBL document CHEMBL2202982, “Synthesis and SAR development of novel mGluR1 antagonists for the treatment of chronic pain” (Bioorg Med Chem Lett, 2012)
